Consider 22 compounds from US20230372525A1, “TRANSGLUTAMINASE CONJUGATION METHOD WITH AMINO ACID-BASED LINKERS” (ARARIS BIOTECH AG, priority 2020, published 2023).

[ ]: non-standard residue; d: D form. The star is where a group is joined. N3 = [N-]=[N+]=N*; βAla = NCCC(=O)O

Test [1] concerns native, glycosylated antibody trastuzumab (anti Her2 IgG). As to the kind of experiment: MTG-mediated conjugation of peptide linkers to native glycosylated trastuzumab, conjugation efficiency by LC-MS under reducing conditions. The class given is biochemical. Conditions: for Conjugation efficiency (%) antibody with conditions 2: conditions 2: trastuzumab 1 mg/mL, MTG 6 U/mg, 80 molar equivalents linker, 20 hours at 37° C.; for Conjugation efficiency (%) to antibody: trastuzumab 5 mg/mL, 20 molar equivalents linker, 50 mM Tris pH 7.6; for Conjugation efficiency (%) to antibody / Conjugation efficiency (%) Trastuzumab with conditions 3: MTG 3 U/mg, 24 hours at 37° C.; for Conjugation efficiency (%) Trastuzumab with conditions 3: conditions 3: 5 mg/mL antibody, 5 molar equivalents linker. The protocol:
(§1) Linkers are used as obtained and dissolved at a suitable stock concentration (e.g. 25 mM) following the manufacturers instruction, aliquots are prepared and stored at −20° C. Two antibodies of IgG-subclass (antibody 1: anti Her2 IgG1, antibody 2: anti CD38 IgG1) are modified as follows: 5 mg/mL of non-deglycosylated antibody (˜33.33 μM) is mixed with 20 molar equivalents of amino acid-based linker (i.e. ˜667 μM), 3 U/mg of antibody and a suitable buffer. The reaction mixture is incubated for 20 h at 37° C. and then subjected for LC-MS analysis under reducing conditions. Other reaction conditions have been used as indicated in the corresponding example.
(§2) For conjugation of the peptide linkers (see FIG. 2 for structures), 5 mg/mL of native, glycosylated monoclonal antibody in 50 mM Tris pH 7.6, microbial transglutaminase (MTG, Zedira) at a concentration of 3 U/mg in 50 mM Tris pH 7.6 or water, and 20 molar equivalents of the indicated peptide linker were used and incubated for 24 hours at 37° C. in a rotating thermomixer. Conjugation efficiency was assessed by LC-MS under DTT reduced conditions. Reduction of samples was achieved by incubation of antibody-linker-conjugates (ALCs) for 15 min at 37° C. in 50 mM DTT (final) and 50 mM Tris buffer. Probes were analyzed on a Xevo G2-XS QTOF (Waters) coupled to an Acquity UPLC H-Class System (Waters) and an ACQUITY UPLC BEH C18 Column. Conjugation efficiency (CE) was calculated from deconvoluted spectra and presented in %. Intensities resulting from both glycoforms (G1F and G0F) were taken into account for the calculation, according to the formula: […]
For conjugation of the peptide linkers (see FIG. 2 for structures), 1 mg/mL of native, glycosylated monoclonal antibody in 50 mM Tris pH 7.6, microbial transglutaminase (MTG, Zedira) at a concentration of 6 U/mg in 50 mM Tris pH 7.6 or water, and 80 molar equivalents of the indicated peptide linker were used and incubated for 20 hours at 37° C. in a rotating thermomixer. These are defined as “conditions 2”. Conjugation efficiency was assessed by LC-MS under DTT reduced conditions. Reduction of samples was achieved by incubation of antibody-linker-conjugates (ALCs) for 15 min at 37° C. in 50 mM DTT (final) and 50 mM Tris buffer. Probes were analyzed on a Xevo G2-XS QTOF (Waters) coupled to an Acquity UPLC H-Class System (Waters) and a ACQUITY UPLC BEH C18 Column. Conjugation efficiency (CE) was calculated from deconvoluted spectra and presented in %. Intensities resulting from both glycoforms (G1F and G0F) were taken into account for the calculation, according to the formula: […]
(§3) For conjugation of the peptide linkers (see FIG. 2 for structures), 5 mg/mL of native, glycosylated monoclonal antibody in 50 mM Tris pH 7.6, microbial transglutaminase (MTG, Zedira) at a concentration of 3 U/mg in 50 mM Tris pH 7.6 or water, and 5 molar equivalents of the indicated peptide linker were used and incubated for 24 hours at 37° C. in a rotating thermomixer. These are defined as “conditions 3”. Conjugation efficiency was assessed by LC-MS under DTT reduced conditions. Reduction of samples was achieved by incubation of antibody-linker-conjugates (ALCs) for 15 min at 37° C. in 50 mM DTT (final) and 50 mM Tris buffer. Probes were analyzed on a Xevo G2-XS QTOF (Waters) coupled to an Acquity UPLC H-Class System (Waters) and a ACQUITY UPLC BEH C18 Column. Conjugation efficiency (CE) was calculated from deconvoluted spectra and presented in %. Intensities resulting from both glycoforms (G1F and G0F) were taken into account for the calculation, according to the formula: […]

The subject of test [2] is native, glycosylated antibody daratumumab (anti CD38 IgG). As to the kind of experiment: MTG-mediated conjugation of peptide linkers to native glycosylated daratumumab, conjugation efficiency by LC-MS under reducing conditions. In kind it is biochemical. Conditions: MTG 3 U/mg, 24 hours at 37° C.; for Conjugation efficiency (%) Daratumumab with conditions 3: conditions 3: 5 mg/mL antibody, 5 molar equivalents linker; for Conjugation efficiency (%) to antibody: daratumumab 5 mg/mL, 20 molar equivalents linker, 50 mM Tris pH 7.6. The protocol: as §1, §2, §3

Test [3] deals with DNA-dependent RNA polymerase II (Homo sapiens, UniProt P24928). The following applies: read-out: KD of the complex between amanitin and RNA-polymerase II; cited from earlier work.
The next test concerns various tumor cell lines. The following applies: cited from earlier work.

Take NH2-C6-GRK(N3)-NH2 [NT42]: in test [1], the “Conjugation efficiency (%) antibody with conditions 2” value (from here on “Conjugation efficiency (%) antibody”) was found to be 38% and the “Conjugation efficiency (%) to antibody” value was determined as 67%.
Consider RGRK(N3)-NH2 [reference compound], for which the “Conjugation efficiency (%) to antibody” value in test [1] is given as 0%.
Consider “NH2-C2-GRK(N3)-NH2 (H-[βAla]GRK(N3)-NH2) [NT37]”, for which, in test [1], the “Conjugation efficiency (%) antibody” value is 38% and the “Conjugation efficiency (%) to antibody” value was 70%.
For NH2-C3-GRK(N3)-NH2 [NT38] the same measures were 36% and 53%.
Take NH2-C4-ValArg-NH2 [NT40]: in test [1], the “Conjugation efficiency (%) antibody” value stood at 83%, the “Conjugation efficiency (%) Trastuzumab with conditions 3” value (from here on “Conjugation efficiency (%) Trastuzumab”) was determined as 58% and the “Conjugation efficiency (%) to antibody” value is on record as 96%. Moreover, in test [2], the “Conjugation efficiency (%) Daratumumab with conditions 3” value (shortened to “Conjugation efficiency (%) Daratumumab”) is reported as 51% and the “Conjugation efficiency (%) to antibody” value was found to be 89%.
Turning to NH2-C6-IleArg-NH2 [NT65], in test [1], the “Conjugation efficiency (%) Trastuzumab” value is 78% and the “Conjugation efficiency (%) to antibody” value stood at 96%. In addition, in test [2], the “Conjugation efficiency (%) Daratumumab” value amounted to 79% and the “Conjugation efficiency (%) to antibody” value worked out at 95%.
Broadly, the Kd is a measure of binding affinity in units of concentration. As for amanitin, the dissociation constant Kd in test [3] was 3 nM.
`CC[C@H](C)[C@H](NC(=O)[C@H]1CCCCN1C)C(=O)N(COC(=O)CC(C)C)[C@H](C[C@@H](OC(C)=O)c1nc(C(=O)N[C@@H](Cc2ccc(O)cc2)C[C@H](C)C(=O)O)cs1)C(C)C` [Tubulysin A]: in the test with various tumor cell lines, the “IC50, cytostatic effects on various tumor cell lines” value is “picomolar range”.
As for VGRC-NH2 [reference compound], in test [1], the “Conjugation efficiency (%) to antibody” value was 0%.
For NH2-C5-GRK(N3)-NH2 [NT36], in test [1], the “Conjugation efficiency (%) antibody” value is given as 56%, the “Conjugation efficiency (%) Trastuzumab” value was found to be 75% and the “Conjugation efficiency (%) to antibody” value stood at 84%. Moreover, in test [2], the “Conjugation efficiency (%) Daratumumab” value stood at 72% and the “Conjugation efficiency (%) to antibody” value is reported as 93%.
As to NH2-C5-ValCit-NH2 [NT43], in test [1], the “Conjugation efficiency (%) antibody” value is 79% and the “Conjugation efficiency (%) to antibody” value is on record as 83%.
Regarding NH2-C6-AspArg-NH2 [NT66], the “Conjugation efficiency (%) to antibody” value is on record as 64% in test [1] and 66% in test [2].
In the case of “NH2-C1-ARK(N3)-NH2 (GARK; HELM PEPTIDE1{G.A.R.[[N-]=[N+]=NCCCC[C@H](N[*:1])C(=O)[*:2]].[am]}$$$$V2.0; SMILES C[C@H](NC(=O)CN)C(=O)N[C@@H](CCCNC(=N)N)C(=O)N[C@@H](CCCCN=[N+]=[N-])C(N)=O) [NT28]”, the “Conjugation efficiency (%) to antibody” value in test [1] is given as 89%.
Take NH2-C5-ValArg-NH2 [NT44]: in test [1], the “Conjugation efficiency (%) antibody” value is 88%, the “Conjugation efficiency (%) Trastuzumab” value is on record as 77% and the “Conjugation efficiency (%) to antibody” value was found to be 100%. In addition, in test [2], the “Conjugation efficiency (%) Daratumumab” value is 73% and the “Conjugation efficiency (%) to antibody” value came to 95%.
As for SAGRK(N3)-NH2 [reference compound], in test [1], the “Conjugation efficiency (%) to antibody” value was determined as 0%.
The same measure, in the same setting: the figure for AARK(N3)-NH2 [reference compound] is 0%.
As to “NH2-C1-GRK(N3)-NH2 (GGRK; HELM PEPTIDE1{G.G.R.[[N-]=[N+]=NCCCC[C@H](N[*:1])C(=O)[*:2]].[am]}$$$$V2.0; SMILES [N-]=[N+]=NCCCC[C@H](NC(=O)[C@H](CCCNC(=N)N)NC(=O)CNC(=O)CN)C(N)=O) [NT24]”, in test [1], the “Conjugation efficiency (%) antibody” value was 78%, the “Conjugation efficiency (%) Trastuzumab” value is recorded as 97% and the “Conjugation efficiency (%) to antibody” value stood at 99%. Also, in test [2], the “Conjugation efficiency (%) Daratumumab” value is reported as 89% and the “Conjugation efficiency (%) to antibody” value was found to be 95%.
On to NH2-C6-ThrArg-NH2 [NT64], for which, in test [1], the “Conjugation efficiency (%) Trastuzumab” value came out at 92% and the “Conjugation efficiency (%) to antibody” value came out at 95%. In addition, in test [2], the “Conjugation efficiency (%) Daratumumab” value was 92% and the “Conjugation efficiency (%) to antibody” value is 93%.
For NH2-C6-TrpArg-NH2 [NT67], the “Conjugation efficiency (%) to antibody” value in test [1] is reported as 82%; in test [2], 83%.
With NH2-C4-GRK(N3)-NH2 [NT41], in test [1], the “Conjugation efficiency (%) antibody” value is given as 70%, the “Conjugation efficiency (%) Trastuzumab” value is listed as 88% and the “Conjugation efficiency (%) to antibody” value was 99%. Moreover, in test [2], the “Conjugation efficiency (%) Daratumumab” value is given as 88% and the “Conjugation efficiency (%) to antibody” value is 98%.
As to LGRC-NH2 [reference compound], the “Conjugation efficiency (%) to antibody” value in test [1] worked out at 0%.
Consider NH2-C4-ValCit-NH2 [NT39], for which, in test [1], the “Conjugation efficiency (%) antibody” value is 63% and the “Conjugation efficiency (%) to antibody” value was determined as 67%.
